Measurements from ChEMBL document CHEMBL5244240, “MmpL3 inhibitors as antituberculosis drugs” (Eur J Med Chem, 2020).
In brackets after ≈: the same amount, converted by molar mass.

Tests used:
[1] = Clearance in mouse microsomes; format: ADME, Microsome
[2] = system: Mycobacterium tuberculosis; assay: Antitubercular activity against Mycobacterium tuberculosis H37Rv; format: functional
[3] = system: Mycobacteroides abscessus; assay: Antimycobacterial activity against Mycobacterium abscessus rough variant; format: functional
[4] = system: Mycobacteroides abscessus; assay: Antimycobacterial activity against Mycobacterium abscessus smooth variant; format: functional
[5] = Tmax in mouse at 25 mg/kg, po; format: ADME, organism-based; conditions: in vivo
[6] = Clearance in mouse at 25 mg/kg, po; format: ADME, organism-based; conditions: in vivo
[7] = Volume of distribution at steady state in mouse at 25 mg/kg, po; format: ADME, organism-based; conditions: in vivo
[8] = Elimination half life in mouse at 25 mg/kg, po; format: ADME, organism-based; conditions: in vivo, read-out: beta t1/2 (converted)
[9] = system: Mycobacterium tuberculosis; assay: Antitubercular activity against replicating Mycobacterium tuberculosis bacilli; format: functional
[10] = system: Mycobacterium tuberculosis; assay: Antitubercular activity against non replicating Mycobacterium tuberculosis bacilli by low oxygen recovery assay; format: functional
[11] = system: Mycobacteroides abscessus; assay: Antitubercular activity against Mycobacterium abscessus CIP104536; format: functional
[12] = system: Mycobacterium tuberculosis; assay: Antitubercular activity against Mycobacterium tuberculosis H37Rv infected in mouse assessed as log reduction in CFU in lung at 100 mg/kg; format: functional
[13] = system: Mycobacterium tuberculosis; assay: Antitubercular activity against Mycobacterium tuberculosis H37Rv infected in mouse assessed as log reduction in CFU in lung at 50 mg/kg; format: functional
[14] = system: Mycobacterium tuberculosis; assay: Antitubercular activity against Mycobacterium tuberculosis infected in mouse assessed as log reduction in bacterial burden in lung at 100 mg/kg; format: functional
[15] = system: Mycobacterium tuberculosis; assay: Antitubercular activity against Mycobacterium tuberculosis infected in mouse assessed as log reduction in bacterial burden in lung at 300 mg/kg; format: functional
[16] = system: Mycobacterium tuberculosis; assay: Antitubercular activity against Mycobacterium tuberculosis […]; format: functional
[17] = system: Mycobacterium tuberculosis; assay: Antitubercular activity against Mycobacterium tuberculosis H37Rv infected in mouse macrophage; format: functional
[18] = system: Mycobacterium tuberculosis; assay: Bactericidal activity against replicating Mycobacterium tuberculosis H37Rv; format: functional
[19] = system: Mycobacterium tuberculosis; assay: Antitubercular activity against replicating Mycobacterium tuberculosis H37Rv; format: functional
[20] = system: Mycobacterium tuberculosis; assay: Antitubercular activity against non-replicating Mycobacterium tuberculosis H37Rv; format: functional

## COc1ccc(-c2cc(CN3CCSCC3)c(C)n2-c2ccc(F)cc2)cc1
[1]
  CLH: 18.76 mL/min/g
[2]
  MIC: 0.2 µM

## Cc1ccccc1CN1CCC(O)(c2ccc(Cl)c(C(F)(F)F)c2)CC1
[3]
  MIC: 0.32 µM (≈ 0.123 µg/mL)
[4]
  MIC: 0.32 µM (≈ 0.123 µg/mL)

## c1cc2c(s1)CCOC21CCN(Cc2ccc3c(c2)OCCO3)CC1
[1]
  CLH: > 30 mL/min/g
[2]
  MIC: 0.3 µM

## CC1(C)CCC(NC(=O)c2cc3c(F)cc(F)cc3[nH]2)CC1
[5]
  Tmax: 1.5 h
[6]
  CL/F: 18.7 mL/min/kg
[7]
  Vdss: 2.24 L/kg
[8]
  half-life: 4.47 h

## CC1(C)CCC(NC(=O)c2cc3c(Cl)cc(Cl)cc3[nH]2)CC1
[5]
  Tmax: 1.5 h
[6]
  CL/F: 18.1 mL/min/kg
[7]
  Vdss: 4.11 L/kg
[8]
  half-life: 5.25 h

## Cc1c(CN2CCN(C)CC2)cc(-c2ccc(Cl)cc2)n1-c1ccc(Cl)cc1
[9]
  MIC: 5 µM (≈ 2.07 µg/mL)
[10]
  MIC: 18.5 µM (≈ 7.67 µg/mL)

## Cc1cc2nc(CCC3CCCCC3)[nH]c2cc1C
[2]
  MIC: 0.75 µg/mL
[11]
  MIC: 0.125 µg/mL (≈ 0.488 µM)

## CCCn1cnc2cc(NCc3ccc(Cl)cc3Cl)ccc21
[2]
  IC90: 16 µM

## Cc1c(CN2CCOCC2)cc(-c2ccc(C(C)C)cc2)n1-c1ccc(F)cc1
[1]
  CLH: 1.4 mL/min/g
[2]
  MIC: 0.12 µM

## FC(F)(F)Oc1ccc(Oc2ccc(CN3CCC4(CC3)OCCc3sccc34)cc2)cc1
[1]
  CLH: 1.2 mL/min/g
[2]
  MIC: 0.06 µM
[12]
  log(activity): 2.7
[13]
  log(activity): 2.3

## CCc1ccc([C@H]2C[C@@H](C(F)(F)F)n3ncc(C(=O)NCc4ccc5c(c4)OCO5)c3N2)cc1
[14]
  log(activity): 1.5
[2]
  MIC: 0.16 µM
[15]
  log(activity): 2.2

## O=C(NCCc1ccc(Cl)cc1)C1(c2cccs2)CCCCC1
[16]
  MIC99: 19.3 µM (≈ 6.71 µg/mL)

## CCc1ccc([C@H]2C[C@@H](C(F)(F)F)n3ncc(C(=O)NCc4ccc(OC)cc4)c3N2)cc1
[2]
  MIC: 0.3 µM
[17]
  MIC80: 0.16 µM (≈ 0.0734 µg/mL)

## FC(F)(F)Oc1ccc(Oc2ccc(CNCCNC3C4CC5CC(C4)CC3C5)cc2)cc1 (stereo not given)
[18]
  MBC99: 5 µM (≈ 2.3 µg/mL)
[19]
  MIC99: 2.5 µM (≈ 1.15 µg/mL)

## CC(C)=CCC/C(C)=C\CNCCNC1C2CC3CC(C2)CC1C3 (stereo not given)
[20]
  MIC: 0.7 µM (≈ 0.231 µg/mL)
[19]
  MIC: 0.7 µM (≈ 0.231 µg/mL)
